Assay results reported in patent US7160916B2, “Method of increasing bone density or treating osteoporosis” (Yung Shin Pharmaceutical Ind. Co., Ltd., priority 2003, dated 2007).

Columns and labels:
Type in all cases: cell-based, rat
Primary osteoblast cells [1] = experiment: Assay of alkaline phosphatase activity in cultured osteoblasts
Experimental: Primary osteoblast cultures: Primary osteoblast cells were prepared from calvaria of 18-day-old fetal Sprague-Dawley (SD) rats according to the following method: Pregnant rats were put in anesthesia using intraperitoneal injection of trichloroacetaldehyde (200 mg/kg). The calvaria of the fetal rats were then dissected with aseptic technique. Soft tissues were removed under a dissecting microscope. The calvaria were divided into small pieces and then treated with 0.1% collagenase (Sigma Chemical, St. Louis, Mo.) solution for 10 minutes at 37° C. The cells released from the calvariae by two 20-minute sequential collagenase digestions were pooled and filtered through 70 μm nylon filters (Falcon, BD BioSciences, San Jose, Calif.). The cells were then grown on plastic cell culture dishes in 95:5 air-CO2 with Dulbecco's modified Eagle's medium (DMEM) (Gibco, Grand Island, N.Y.) which was supplemented with 20 mM HEPES and 10% heat-inactivated FCS, 2 mM-glutamine, penicillin (100 U/ml) and streptomycin (100 μg/ml) (pH adjusted to 7.6). The cell medium was changed twice a week. Osteoblasts were confirmed by morphology and expression of alkaline phosphatase (ALP). To examine the maturation of osteoblasts, cells were cultured for up to 14 days in a growth medium containing ascorbic acid (50 μg/ml) (Sigma Chemical, St. Louis, Mo.) and β-glycerophosphate (10 mM) (Sigma Chemical, St. Louis, Mo.) and the medium was changed every 3 day. Assay of alkalinephosphatase activity: Cells cultured in 6-well plates in the presence or absence of Indazole 1 were harvested in 1 ml of 0.2% Nonidet P-40 and cell suspension was disrupted by sonication. After centrifugation at 1500 g for 5 min, ALP activity in the supernatant was measured by the method of Lowry et al (1954) J Biol Chem 207:19–37.

Primary osteoblast cells [2] = experiment: von Kossa staining, bone nodule formation; conditions: treatment for 2 weeks
Experimental: Primary osteoblast cultures: Primary osteoblast cells were prepared from calvaria of 18-day-old fetal Sprague-Dawley (SD) rats according to the following method: Pregnant rats were put in anesthesia using intraperitoneal injection of trichloroacetaldehyde (200 mg/kg). The calvaria of the fetal rats were then dissected with aseptic technique. Soft tissues were removed under a dissecting microscope. The calvaria were divided into small pieces and then treated with 0.1% collagenase (Sigma Chemical, St. Louis, Mo.) solution for 10 minutes at 37° C. The cells released from the calvariae by two 20-minute sequential collagenase digestions were pooled and filtered through 70 μm nylon filters (Falcon, BD BioSciences, San Jose, Calif.). […]
von Kossa staining: Osteoblasts were cultured in DMEM containing 50 μg/ml vitamin C and 10 mM β-glycerophosphate for 2 weeks and the medium was changed every 3 days. […] The number of nodules formed per well was counted under a light microscope. Collagen synthesis was determined by measuring the 4-hydroxyproline content in cultured osteoblasts. […] After lyophilizing and reconstituting a lysate in distilled water, the amount of 4-hydroxyproline was determined by spectrophotometry at 550 nm as described by Berg (1982) Meth Enzymol. […]

Day-3 osteoblasts = experiment: Fibronectin fibrillogenesis by immunocytochemistry; conditions: 10 μM for 24 hr
Experimental: Fibronectin (Fn) plays an important role in the regulation of adhesion, migration, and maturation of osteoblasts. Fn fibrillogenesis is involved in the process of bone mineralization. The effect of Indazole 1 on Fn fibrillogenesis in cultured osteoblasts was examined. The immobilized form of fibrillogenesis from the endogenously released Fn by monolayer Day 3˜5 osteoblasts was studied using immunocytochemistry. Incubation of Day-3 osteoblasts with Indazole 1 (10 μM) for 24 hr increased extracellular Fn assembly. Flow cytometry was used to analyze the effect of Indazole 1 on the surface expression of α5 and β1 integrins. […] On the other hand, the collagen synthesis was increased by Indazole 1 only at a higher concentration of 10 μM.

OCc1ccc(-c2nn(Cc3ccccc3)c3ccccc23)o1 [Indazole 1, 1-benzyl-3-(5′-hydroxymethyl-2′-furyl)-indazole]
concentration dependence of the increase of ALP activity (Primary osteoblast cells [1]): concentration-dependent
ALP activity (ALP staining) (Primary osteoblast cells [1]; 10 μM for 2 weeks): significantly increased
number of bone nodules (von Kossa staining) (Primary osteoblast cells [2]): increased the number of bone nodules in a concentration-dependent manner
extracellular Fn assembly (Day-3 osteoblasts): increased
